Data: paper PMC5218821 (Journal of ocular biology, 2016)

Biological target: T1, soluble epoxide hydrolase (sEH) (Oryctolagus cuniculus, UniProt A0A5F9CRP6)
T1 construct: gene ADAM2
T1 sequence (A0A5F9CRP6 1-555): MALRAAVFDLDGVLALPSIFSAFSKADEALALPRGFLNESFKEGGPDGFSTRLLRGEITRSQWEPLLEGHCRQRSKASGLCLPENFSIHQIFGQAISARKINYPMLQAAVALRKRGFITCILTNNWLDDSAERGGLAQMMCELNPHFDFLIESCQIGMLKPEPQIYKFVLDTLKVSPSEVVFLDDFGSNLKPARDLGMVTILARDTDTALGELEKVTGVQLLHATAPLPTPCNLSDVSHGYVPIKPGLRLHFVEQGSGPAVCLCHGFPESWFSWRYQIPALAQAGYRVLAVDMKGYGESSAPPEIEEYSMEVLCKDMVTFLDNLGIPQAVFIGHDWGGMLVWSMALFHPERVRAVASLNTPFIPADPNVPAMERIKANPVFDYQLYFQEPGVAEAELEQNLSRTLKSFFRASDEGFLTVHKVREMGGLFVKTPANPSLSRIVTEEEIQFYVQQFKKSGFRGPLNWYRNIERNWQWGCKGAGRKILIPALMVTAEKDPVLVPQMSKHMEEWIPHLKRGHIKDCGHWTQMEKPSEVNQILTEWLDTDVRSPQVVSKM
Assay: biochemical

IC50: 88 nM
SMILES: CS(=O)(=O)N1CCC(NC(=O)Nc2ccc(OC(F)(F)F)cc2)CC1 [UC1709, TUPS]
